Patent US11708318B2, “Polymorphic forms of RAD1901-2HCL” (Radius Pharmaceuticals, Inc., priority 2017, dated 2023)
“Also recorded” adds a separate entry of the source. Where two headings read alike, the source gives them in different places.

Assay: Solubility assessment of Sample 1 (majorly Form 1) in 24 solvent systems
Type: physicochemical
Details: for solubility: thermodynamic from solid
Procedure: Solubility assessment was carried out on the Sample 1 of RAD1901-2HCl (majorly Form 1 shown by XRPD) in 24 solvent systems in HPLC vials (sample IDs: A1 to A24). RAD1901-2HCl (25 mg) was treated with increasing volumes of solvent until the material fully dissolved or until a maximum of 60 vol had been used (Table 13).
After each addition of solvent, the system was stirred for 5 to 10 minutes at 25° C., then shaken at 50° C. for 5 to 10 minutes, and observations made. Samples were allowed to stand at room temperature for 5 min before the addition of a new aliquot of solvent. After the assessment was completed, the suspensions obtained were matured (maturation) and the clear solutions were cooled (cooling) and slowly evaporated (evaporation) as described below. All solids recovered from maturation, cooling and evaporation experiments were analyzed by high resolution XRPD.

Q: With `CCNCCc1ccc(CN(CC)c2cc(OC)ccc2[C@@H]2CCc3cc(O)ccc3C2)cc1.Cl.Cl` [Sample 1] as the compound, how does the solubility (acetonitrile, 50 °C, organic solvent or mixture, Acetonitrile, sample ID A19, read-out: Solubility assessment 40 vol.) read?
A: < 25 mg/mL

Q: And the solubility (acetonitrile, 50 °C, organic solvent or mixture, Acetonitrile, sample ID A19, read-out: Solubility assessment 60 vol.)?
A: < 16.7 mg/mL

Q: And the solubility (dichloromethane, 50 °C, organic solvent or mixture, Dichloromethane, sample ID A18, read-out: Solubility assessment 10 vol.)?
A: < 100 mg/mL

Q: What about the solubility (dichloromethane, 50 °C, organic solvent or mixture, Dichloromethane, sample ID A18, read-out: Solubility assessment 20 vol.) of the same compound?
A: < 50 mg/mL

Q: And the solubility (dichloromethane, 50 °C, organic solvent or mixture, Dichloromethane, sample ID A18, read-out: Solubility assessment 40 vol.)?
A: < 25 mg/mL

Q: And the solubility (dichloromethane, organic solvent or mixture, Dichloromethane, sample ID A18, read-out: Solubility assessment 60 vol.)?
A: < 16.7 mg/mL

Q: What about the solubility (dimethyl sulfoxide, 50 °C, organic solvent or mixture, Dimethyl sulfoxide, sample ID A11, read-out: Solubility assessment 10 vol.) of the same compound?
A: > 100 mg/mL

Q: What about the solubility (ethanol, 50 °C, organic solvent or mixture, Ethanol, sample ID A10, read-out: Solubility assessment 10 vol.) of the same compound?
A: < 100 mg/mL

Q: What about the solubility (ethanol, 50 °C, organic solvent or mixture, Ethanol, sample ID A10, read-out: Solubility assessment 20 vol.) of the same compound?
A: < 50 mg/mL

Q: What about the solubility (ethanol, 50 °C, organic solvent or mixture, Ethanol, sample ID A10, read-out: Solubility assessment 40 vol.) of the same compound?
A: < 25 mg/mL

Q: What about the solubility (ethanol, organic solvent or mixture, Ethanol, sample ID A10, read-out: Solubility assessment 60 vol.) of the same compound?
A: < 16.7 mg/mL

Q: And the solubility (ethyl acetate, 50 °C, organic solvent or mixture, Ethyl acetate, sample ID A3, read-out: Solubility assessment 10 vol.)?
A: < 100 mg/mL

Q: What about the solubility (ethyl acetate, 50 °C, organic solvent or mixture, Ethyl acetate, sample ID A3, read-out: Solubility assessment 20 vol.) of the same compound?
A: < 50 mg/mL

Q: And the solubility (ethyl acetate, 50 °C, organic solvent or mixture, Ethyl acetate, sample ID A3, read-out: Solubility assessment 40 vol.)?
A: < 25 mg/mL

Q: What about the solubility (ethyl acetate, organic solvent or mixture, Ethyl acetate, sample ID A3, read-out: Solubility assessment 60 vol.) of the same compound?
A: < 16.7 mg/mL

Q: What about the solubility (isopropyl acetate, 50 °C, organic solvent or mixture, Isopropyl acetate, sample ID A4, read-out: Solubility assessment 10 vol.) of the same compound?
A: < 100 mg/mL

Q: And the solubility (isopropyl acetate, 50 °C, organic solvent or mixture, Isopropyl acetate, sample ID A4, read-out: Solubility assessment 20 vol.)?
A: < 50 mg/mL

Q: And the solubility (isopropyl acetate, 50 °C, organic solvent or mixture, Isopropyl acetate, sample ID A4, read-out: Solubility assessment 40 vol.)?
A: < 25 mg/mL

Q: What about the solubility (isopropyl acetate, organic solvent or mixture, Isopropyl acetate, sample ID A4, read-out: Solubility assessment 60 vol.) of the same compound?
A: < 16.7 mg/mL

Q: What about the solubility (methanol, 50 °C, organic solvent or mixture, Methanol, sample ID A20, read-out: Solubility assessment 10 vol.) of the same compound?
A: 50 to 100 mg/mL

Q: And the solubility (methanol, 50 °C, organic solvent or mixture, Methanol, sample ID A20, read-out: Solubility assessment 20 vol.)?
A: 50 to 100 mg/mL

Q: And the solubility (n-heptane, 50 °C, organic solvent or mixture, n-Heptane, sample ID A1, read-out: Solubility assessment 10 vol.)?
A: < 100 mg/mL

Q: What about the solubility (n-heptane, 50 °C, organic solvent or mixture, n-Heptane, sample ID A1, read-out: Solubility assessment 20 vol.) of the same compound?
A: < 50 mg/mL

Q: What about the solubility (n-heptane, 50 °C, organic solvent or mixture, n-Heptane, sample ID A1, read-out: Solubility assessment 40 vol.) of the same compound?
A: < 25 mg/mL

Q: What about the solubility (n-heptane, organic solvent or mixture, n-Heptane, sample ID A1, read-out: Solubility assessment 60 vol.) of the same compound?
A: < 16.7 mg/mL

Q: What about the solubility (nitromethane, 50 °C, organic solvent or mixture, Nitromethane, sample ID A21, read-out: Solubility assessment 10 vol.) of the same compound?
A: < 100 mg/mL

Q: What about the solubility (nitromethane, 50 °C, organic solvent or mixture, Nitromethane, sample ID A21, read-out: Solubility assessment 20 vol.) of the same compound?
A: < 50 mg/mL

Q: And the solubility (nitromethane, 50 °C, organic solvent or mixture, Nitromethane, sample ID A21, read-out: Solubility assessment 40 vol.)?
A: < 25 mg/mL

Q: What about the solubility (nitromethane, organic solvent or mixture, Nitromethane, sample ID A21, read-out: Solubility assessment 60 vol.) of the same compound?
A: < 16.7 mg/mL

Q: What about the solubility (propyl acetate, 50 °C, organic solvent or mixture, Propyl acetate, sample ID A2, read-out: Solubility assessment 10 vol.) of the same compound?
A: < 100 mg/mL

Q: What about the solubility (propyl acetate, 50 °C, organic solvent or mixture, Propyl acetate, sample ID A2, read-out: Solubility assessment 20 vol.) of the same compound?
A: < 50 mg/mL

Q: And the solubility (propyl acetate, 50 °C, organic solvent or mixture, Propyl acetate, sample ID A2, read-out: Solubility assessment 40 vol.)?
A: < 25 mg/mL

Q: And the solubility (propyl acetate, organic solvent or mixture, Propyl acetate, sample ID A2, read-out: Solubility assessment 60 vol.)?
A: < 16.7 mg/mL

Q: What about the solubility (tetrahydrofuran, 50 °C, organic solvent or mixture, Tetrahydrofuran, sample ID A17, read-out: Solubility assessment 10 vol.) of the same compound?
A: < 100 mg/mL

Q: What about the solubility (tetrahydrofuran, 50 °C, organic solvent or mixture, Tetrahydrofuran, sample ID A17, read-out: Solubility assessment 20 vol.) of the same compound?
A: < 50 mg/mL

Q: What about the solubility (tetrahydrofuran, 50 °C, organic solvent or mixture, Tetrahydrofuran, sample ID A17, read-out: Solubility assessment 40 vol.) of the same compound?
A: < 25 mg/mL

Q: And the solubility (tetrahydrofuran, organic solvent or mixture, Tetrahydrofuran, sample ID A17, read-out: Solubility assessment 60 vol.)?
A: < 16.7 mg/mL

Q: What about the solubility (toluene, 50 °C, organic solvent or mixture, Toluene, sample ID A15, read-out: Solubility assessment 10 vol.) of the same compound?
A: < 100 mg/mL

Q: And the solubility (toluene, 50 °C, organic solvent or mixture, Toluene, sample ID A15, read-out: Solubility assessment 20 vol.)?
A: < 50 mg/mL

Q: And the solubility (toluene, 50 °C, organic solvent or mixture, Toluene, sample ID A15, read-out: Solubility assessment 40 vol.)?
A: < 25 mg/mL

Q: And the solubility (toluene, organic solvent or mixture, Toluene, sample ID A15, read-out: Solubility assessment 60 vol.)?
A: < 16.7 mg/mL

Q: What about the Solubility in water (water) of the same compound?
A: highly soluble; also recorded: high solubility

Q: What about the solubility (water, 50 °C, water, Water, sample ID A12, read-out: Solubility assessment 10 vol.) of the same compound?
A: 50 to 100 mg/mL

Q: What about the solubility (water, 50 °C, water, Water, sample ID A12, read-out: Solubility assessment 20 vol.) of the same compound?
A: 50 to 100 mg/mL
